{"source": "ChEMBL document CHEMBL4480365", "about": "“Coupling the cell-penetrating peptides transportan and transportan 10 to primaquine enhances its activity against liver-stage malaria parasites” (Medchemcomm, 2019)", "key": {"Plasmodium berghei": {"system": "Plasmodium berghei", "experiment": "Antiplasmodial activity against Plasmodium berghei liver-stage forms at 1 to 10 uM", "type": "functional, organism-based"}, "Huh-7": {"system": "Huh-7", "experiment": "Cytotoxicity against human HuH7 cells assessed as reduction in cell viability at 1 to 10 uM", "type": "cell-based", "details": "huh-7, 10 µM"}}, "note": "Calls of active or inactive are those of the source. The calls are words filed in the database; no cut-off is given here. Starred links: 1 amine or outer side, 2 acyl side, 3 side chain; linkers in the order of their positions; H or OH if unused. Residues, ends and D or L forms follow the SMILES beside them. *: point of attachment. X1 = COc1cc(NC(C)CCCNC(=O)C(N)CSSCC(N)C(=O)NC(=O)[C@H](CC(C)C)N*)c2ncccc2c1; Primaquine = COc1cc(NC(C)CCCN*)c2ncccc2c1; Suc = O=C(CCC(=O)[*:2])[*:1]", "data": [{"molecule": "CC[C@H](C)[C@H](NC(=O)[C@H](CCCCN)NC(=O)[C@H](CCCCN)NC(=O)[C@H](C)NC(=O)[C@H](CC(C)C)NC(=O)[C@H](C)NC(=O)[C@H](C)NC(=O)[C@H](CC(C)C)NC(=O)[C@H](C)NC(=O)[C@H](CCCCN)NC(=O)[C@H](CC(C)C)NC(=O)[C@H](CC(N)=O)NC(=O)[C@@H](NC(=O)[C@H](CCCCN)NC(=O)CNC(=O)[C@H](CC(C)C)NC(=O)[C@H](CC(C)C)NC(=O)[C@H](Cc1ccc(O)cc1)NC(=O)CNC(=O)[C@H](C)N)[C@@H](C)CC)C(=O)N[C@@H](CC(C)C)C(=O)O", "values": [{"measurement": "Activity", "setting": "Plasmodium berghei", "result": "Active"}, {"measurement": "Activity", "setting": "Huh-7", "result": "Non-Toxic"}]}, {"molecule": "CC[C@H](C)[C@H](NC(=O)[C@H](CCCCN)NC(=O)[C@H](CCCCN)NC(=O)[C@H](C)NC(=O)[C@H](CC(C)C)NC(=O)[C@H](C)NC(=O)[C@H](C)NC(=O)[C@H](CC(C)C)NC(=O)[C@H](C)NC(=O)[C@H](CCCCN)NC(=O)[C@H](CC(C)C)NC(=O)[C@H](CC(N)=O)NC(=O)[C@@H](NC(=O)[C@H](CCCCN)NC(=O)CNC(=O)[C@H](CC(C)C)NC(=O)[C@H](CC(C)C)NC(=O)[C@H](Cc1ccc(O)cc1)NC(=O)CNC(=O)[C@H](C)NC(=O)[C@H](CO)NC(=O)[C@H](CC(N)=O)NC(=O)[C@H](CC(C)C)NC(=O)[C@@H](NC(=O)[C@H](Cc1c[nH]c2ccccc12)NC(=O)CN)[C@@H](C)O)[C@@H](C)CC)C(=O)N[C@@H](CC(C)C)C(=O)O", "values": [{"measurement": "Activity", "setting": "Plasmodium berghei", "result": "inactive"}, {"measurement": "Activity", "setting": "Huh-7", "result": "Non-Toxic"}]}, {"molecule": "CC[C@H](C)[C@H](NC(=O)[C@H](CCCCN)NC(=O)[C@H](CCCCN)NC(=O)[C@H](C)NC(=O)[C@H](CC(C)C)NC(=O)[C@H](C)NC(=O)[C@H](C)NC(=O)[C@H](CC(C)C)NC(=O)[C@H](C)NC(=O)[C@H](CCCCN)NC(=O)[C@H](CC(C)C)NC(=O)[C@H](CC(N)=O)NC(=O)[C@@H](NC(=O)[C@H](CCCCN)NC(=O)CNC(=O)[C@H](CC(C)C)NC(=O)[C@H](CC(C)C)NC(=O)[C@H](Cc1ccc(O)cc1)NC(=O)CNC(=O)[C@H](C)NC(=O)CCC(=O)NCCCC(C)Nc1cc(OC)cc2cccnc12)[C@@H](C)CC)C(=O)N[C@@H](CC(C)C)C(=O)O", "note": "(some centres undefined)", "values": [{"measurement": "Activity", "setting": "Plasmodium berghei", "result": "Active"}, {"measurement": "Activity", "setting": "Huh-7", "result": "Non-Toxic"}]}, {"molecule": "CC[C@H](C)[C@H](NC(=O)[C@H](CCCCN)NC(=O)[C@H](CCCCN)NC(=O)[C@H](C)NC(=O)[C@H](CC(C)C)NC(=O)[C@H](C)NC(=O)[C@H](C)NC(=O)[C@H](CC(C)C)NC(=O)[C@H](C)NC(=O)[C@H](CCCCN)NC(=O)[C@H](CC(C)C)NC(=O)[C@H](CC(N)=O)NC(=O)[C@@H](NC(=O)[C@H](CCCCN)NC(=O)CNC(=O)[C@H](CC(C)C)NC(=O)[C@H](CC(C)C)NC(=O)[C@H](Cc1ccc(O)cc1)NC(=O)CNC(=O)[C@H](C)N)[C@@H](C)CC)C(=O)N[C@@H](CC(C)C)C(=O)NC(=O)C(N)CSSCC(N)C(=O)NCCCC(C)Nc1cc(OC)cc2cccnc12", "note": "(some centres undefined) (H-AGYLLGKINLKALAALAKKI-X1)", "values": [{"measurement": "Activity", "setting": "Plasmodium berghei", "result": "Active"}, {"measurement": "Activity", "setting": "Huh-7", "result": "Toxic"}]}, {"molecule": "CC[C@H](C)[C@H](NC(=O)[C@H](CC(C)C)NC(=O)[C@H](Cc1ccccc1)NC(=O)[C@H](Cc1ccccc1)NC(=O)CCC(=O)NCCCC(C)Nc1cc(OC)cc2cccnc12)C(=O)N1CCC[C@H]1C(=O)N[C@@H](CCCCN)C(=O)NCC(=O)NCC(=O)N[C@@H](CCCNC(=N)N)C(=O)N[C@@H](CCCCN)C(=O)N[C@@H](CCCCN)C(=O)N[C@@H](CCCNC(=N)N)C(=O)N[C@@H](CCCNC(=N)N)C(=O)N[C@@H](CCC(N)=O)C(=O)N[C@@H](CCCNC(=N)N)C(=O)N[C@@H](CCCNC(=N)N)C(=O)N[C@@H](CCCNC(=N)N)C(=O)N1CCC[C@H]1C(=O)N1CCC[C@H]1C(=O)N[C@@H](CCC(N)=O)C(=O)O", "note": "(some centres undefined) ({Primaquine-Suc}-FFLIPKGGRKKRRQRRRPPQ-OH)", "values": [{"measurement": "Activity", "setting": "Huh-7", "result": "Non-Toxic"}]}, {"molecule": "COc1cc(NC(C)CCCNC(=O)CCC(=O)N[C@@H](CCCNC(=N)N)C(=O)N[C@@H](CCCCN)C(=O)N[C@@H](CCCCN)C(=O)N[C@@H](CCCNC(=N)N)C(=O)N[C@@H](CCCNC(=N)N)C(=O)N[C@@H](CCC(N)=O)C(=O)N[C@@H](CCCNC(=N)N)C(=O)N[C@@H](CCCNC(=N)N)C(=O)N[C@@H](CCCNC(=N)N)C(=O)N2CCC[C@H]2C(=O)N2CCC[C@H]2C(=O)N[C@@H](CCC(N)=O)C(=O)O)c2ncccc2c1", "note": "(some centres undefined) ({Primaquine-Suc}-RKKRRQRRRPPQ-OH)", "values": [{"measurement": "Activity", "setting": "Plasmodium berghei", "result": "Active"}, {"measurement": "Activity", "setting": "Huh-7", "result": "Non-Toxic"}]}, {"molecule": "CC[C@H](C)[C@H](NC(=O)[C@H](CCCNC(=N)N)NC(=O)[C@@H](NC(=O)[C@H](C)NC(=O)[C@@H](NC(=O)[C@@H](NC(=O)[C@H](CC(C)C)NC(=O)[C@H](CCCNC(=N)N)NC(=O)[C@@H](NC(=O)CCC(=O)NCCCC(C)Nc1cc(OC)cc2cccnc12)C(C)C)[C@@H](C)CC)C(C)C)C(C)C)C(=O)N[C@@H](Cc1c[nH]c2ccccc12)C(=O)N[C@@H](CCCNC(=N)N)C(=O)N[C@@H](CCCNC(=N)N)C(=O)O", "note": "(some centres undefined) ({Primaquine-Suc}-VRLIVAVRIWRR-OH)", "values": [{"measurement": "Activity", "setting": "Plasmodium berghei", "result": "inactive"}, {"measurement": "Activity", "setting": "Huh-7", "result": "Non-Toxic"}]}, {"molecule": "COc1cc(NC(C)CCCN)c2ncccc2c1", "note": "(centres undefined) [PRIMAQUINE]", "values": [{"measurement": "Activity", "setting": "Plasmodium berghei", "result": "Active"}, {"measurement": "Activity", "setting": "Huh-7", "result": "Non-Toxic"}]}, {"molecule": "H-FFLIPKGGRKKRRQRRRPPQ-OH", "values": [{"measurement": "Activity", "setting": "Plasmodium berghei", "result": "Active"}, {"measurement": "Activity", "setting": "Huh-7", "result": "Non-Toxic"}]}, {"molecule": "H-RKKRRQRRRPPQ-OH", "values": [{"measurement": "Activity", "setting": "Plasmodium berghei", "result": "Active"}, {"measurement": "Activity", "setting": "Huh-7", "result": "Non-Toxic"}]}]}
